Tests used:
[1] = biological target: T1, JAK3: Recombinant human kinase domain (Homo sapiens, UniProt P52333); assay: Determination of IC50 of Janus Kinase (JAK) inhibition, radioactive end-point 33P-ATP assay, JAK3; assay type: biochemical; details: ATP 1.5 uM, peptide 50 uM, 20 minutes, read-out: JAK3-INHIB-DR/v1~NO ADDITIVE~Enzyme_Conc = 100
T1 construct: JAK3: Recombinant human kinase domain from Millipore (Cat #14-629) or prepared; purchased Millipore 14-629

[2] = biological target: T2, recombinant human SYK360-635 (Homo sapiens, UniProt P43405); assay: Determination of IC50 of Spleen Tyrosine Kinase (SYK) inhibition, 33P ATP filtration assay; assay type: biochemical; details: SYK aa 360-635 0.5 nM; ATP 20 μM, peptide 5 μM, 0.1% BSA; read-out: SYK_ENZYME_FILTRATION/v1, BSA
T2 construct: made in house

T1 sequence (P52333 822-1111 limits assumed): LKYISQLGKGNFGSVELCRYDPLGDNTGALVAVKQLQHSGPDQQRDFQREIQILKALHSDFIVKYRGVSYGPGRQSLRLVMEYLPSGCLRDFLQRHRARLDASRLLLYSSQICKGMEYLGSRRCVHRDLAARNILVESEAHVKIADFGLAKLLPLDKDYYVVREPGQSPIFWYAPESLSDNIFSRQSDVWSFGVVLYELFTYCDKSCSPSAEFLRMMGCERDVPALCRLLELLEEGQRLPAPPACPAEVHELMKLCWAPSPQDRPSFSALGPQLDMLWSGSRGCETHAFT

SMILES | IC50 [1] [nM] | IC50 [2] [nM]
COC[C@H](C)NC(=O)c1c[nH]c2ncc(-c3nn(CCn4cccn4)c4cc(F)ccc34)nc12 [Example I-244, 2-[6-Fluoro-1-(2-pyrazol-1-yl-ethyl)-1H-indazol-3-yl]-5H-pyrrolo[2,3-b]pyrazine-7-carboxylic acid ((S)-2-methoxy-1-methyl-ethyl)-amide] | 5.46 | 324
CN(C)CCn1nc(-c2cnc3[nH]cc(C(=O)NC(C)(C)C)c3n2)c2ccc(F)cc21 [Example I-313, 2-[1-(2-Dimethylamino-ethyl)-6-fluoro-1H-indazol-3-yl]-5H-pyrrolo[2,3-b]pyrazine-7-carboxylic acid tert-butylamide] | 157 | 46
CC(NC(=O)c1c[nH]c2ncc(-c3nn(C)c4cc(F)ccc34)nc12)c1cocn1 (stereo not shown) [Example I-52, 2-(6-Fluoro-1-methyl-1H-indazol-3-yl)-5H-pyrrolo[2,3-b]pyrazine-7-carboxylic acid (1-oxazol-4-yl-ethyl)-amide] | 8.87 | 19.4
C[C@@H](CC#N)NC(=O)c1c[nH]c2ncc(-c3nn(C)c4cc(Cl)ccc34)nc12 [Example I-142, 2-(6-Chloro-1-methyl-1H-indazol-3-yl)-5H-pyrrolo[2,3-b]pyrazine-7-carboxylic acid ((S)-2-cyano-1-methyl-ethyl)-amide] | 8.04 | 20.5
Cn1nc(-c2cnc3[nH]cc(C(=O)N[C@@H]4CC[C@@H](C#N)C4)c3n2)c2ccc(Cl)cc21 [Example I-36, 2-(6-Chloro-1-methyl-1H-indazol-3-yl)-5H-pyrrolo[2,3-b]pyrazine-7-carboxylic acid ((1R,3R)-3-cyano-cyclopentyl)-amide] | 19 | 27.2
CC[C@H](C)NC(=O)c1c[nH]c2ncc(-c3nn(C)c4cc(F)ccc34)nc12 [Example I-178, 2-(6-Fluoro-1-methyl-1H-indazol-3-yl)-5H-pyrrolo[2,3-b]pyrazine-7-carboxylic acid ((S)-sec-butyl)-amide] | 1.9 | 4.6
COC[C@H](C)NC(=O)c1c[nH]c2ncc(-c3nn(C4COC4)c4cc(F)ccc34)nc12 [Example I-103, 2-(6-Fluoro-1-oxetan-3-yl-1H-indazol-3-yl)-5H-pyrrolo[2,3-b]pyrazine-7-carboxylic acid ((S)-2-methoxy-1-methyl-ethyl)-amide] | 0.26 | 43.8
C[C@@H](O)[C@@H](NC(=O)c1c[nH]c2ncc(-c3nn(C)c4cc(F)ccc34)nc12)C(=O)N1CC(F)C1 [Example I-198, 2-(6-Fluoro-1-methyl-1H-indazol-3-yl)-5H-pyrrolo[2,3-b]pyrazine-7-carboxylic acid [(1R,2R)-1-(3-fluoro-azetidine-1-carbonyl)-2-hydroxy-propyl]-amide] | 1.61 | 120
C[C@H](NC(=O)c1c[nH]c2ncc(-c3nn(C)c4cc(F)ccc34)nc12)C(C)(C)C [Example I-45, 2-(6-Fluoro-1-methyl-1H-indazol-3-yl)-5H-pyrrolo[2,3-b]pyrazine-7-carboxylic acid ((S)-1,2,2-trimethyl-propyl)-amide] | 0.535 | 11
C[C@@H](NC(=O)c1c[nH]c2ncc(-c3nn(C)c4cc(F)ccc34)nc12)C(C)(F)F [Example I-56, 2-(6-Fluoro-1-methyl-1H-indazol-3-yl)-5H-pyrrolo[2,3-b]pyrazine-7-carboxylic acid ((R)-2,2-difluoro-1-methyl-propyl)-amide] | 11.7 | 7.23
CC(C)CNC(=O)c1c[nH]c2ncc(-c3nn(C)c4cc(F)ccc34)nc12 [Example I-116, 2-(6-Fluoro-1-methyl-1H-indazol-3-yl)-5H-pyrrolo[2,3-b]pyrazine-7-carboxylic acid isobutyl-amide] | 9.44 | 17.6
